Results reported in ChEMBL document CHEMBL4431308, “Structure and Configuration of Phosphoeleganin, a Protein Tyrosine Phosphatase 1B Inhibitor from the Mediterranean Ascidian Sidnyum elegans” (J Nat Prod, 2016).
Active and inactive are the calls of the source. No cut-off for these calls is given here.

Legend:
[1] = biological target: Dual specificity tyrosine-phosphorylation-regulated kinase 1A (Homo sapiens) (UniProt Q13627); test: Inhibition of GST-fused human recombinant DYRK1A expressed in Escherichia coli using woodtide as substrate after 30 mins in presence of [gamma-33P]ATP by liquid scintillation counting
[2] = biological target: T1, Tyrosine-protein phosphatase non-receptor type 1 (Homo sapiens, UniProt P18031); test: Inhibition of human recombinant PTP1B catalytic domain expressed in Escherichia coli strain BL21(DE3) using […] as substrate
T1 sequence (P18031 whole entry): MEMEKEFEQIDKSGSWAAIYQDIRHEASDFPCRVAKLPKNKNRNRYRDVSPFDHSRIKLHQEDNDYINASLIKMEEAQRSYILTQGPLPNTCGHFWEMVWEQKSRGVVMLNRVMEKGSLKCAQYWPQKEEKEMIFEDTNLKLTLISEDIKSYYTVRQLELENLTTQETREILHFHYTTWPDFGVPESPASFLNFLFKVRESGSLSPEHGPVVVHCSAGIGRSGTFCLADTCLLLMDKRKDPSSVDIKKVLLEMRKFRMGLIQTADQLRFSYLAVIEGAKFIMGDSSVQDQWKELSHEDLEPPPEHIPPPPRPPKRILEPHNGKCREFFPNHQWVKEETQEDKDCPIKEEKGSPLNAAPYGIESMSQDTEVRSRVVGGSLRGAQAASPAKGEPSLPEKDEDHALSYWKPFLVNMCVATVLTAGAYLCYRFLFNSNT

[3] = system: DU-145; test: Cytotoxicity against human DU145 cells assessed as reduction in cell viability after 24 hrs by MTT assay; assay type: cell-based; conditions: DU-145, 24 h
[4] = system: MCF7; test: Cytotoxicity against human MCF7 cells assessed as reduction in cell viability after 24 hrs by MTT assay; assay type: cell-based; conditions: MCF7, 24 h
[5] = system: HaCaT; test: Cytotoxicity against human HaCaT cells assessed as reduction in cell viability after 24 hrs by MTT assay; assay type: cell-based

| inhibition [1] | IC50 [2] | SMILES | IC50 [3] | IC50 [4] | IC50 [5] |
| --- | --- | --- | --- | --- | --- |
| inactive | 11 µM | CCCCCCCCCCCCCC[C@@H](OP(=O)(O)O)[C@@H](O)CC[C@@H](O)[C@@H](O)CC[C@@H](O)CCCCCCC(=O)NCC(=O)O | > 10 µM | > 10 µM | > 10 µM |
| inactive | 24 µM | CCCCCCCCCCCCCC[C@@H](OP(=O)(O)O)[C@@H](O)CCCO | > 10 µM | > 10 µM | > 10 µM |
| inactive | 28 µM | O=C(O)CNC(=O)CCCCCC[C@H](O)CCCO | > 10 µM | > 10 µM | > 10 µM |
